# Experimental data from patent US9504676B2, “Molecules inhibiting a metabolic pathway involving the Syk protein tyrosine kinase and method for identifying said molecules” (CENTRE NATIONAL DE LA RECHERCHE SCIENTIFIQUE, priority 2008, dated 2016).
# System: Syk mutants (Arg 68, Glu 121, Glu 155)
# Assay: Binding of G4G11 with Syk mutants in the ADA method
# Design: species or system murine
# Conditions: 5 μM of C-13
# Excerpt: On the basis of this information and the known 3D structure of the peptide complex formed by the SH2 domains of Syk and ITAM motifs^17, the inventors used computing approaches to locate a putative binding site for C-13. A candidate cavity comprising the residues Ser 9, Gln 43, Phe 51, Ile 66, Glu 67, Arg 68, Glu 69, Leu 70, Asn 71, Gly 72, Thr 73, Tyr 74, Ala 75, Glu 121 and Glu 155 of human Syk protein (see FIG. 8A, SEQ ID No. 1) and situated in the vicinity of the G4G11 epitope was identified (FIG. 1C). A structural analysis specified that the residues Ser 9, Gln 43, Phe 51, Arg 68, Glu 121 and Glu 155 could be involved in the binding of the ligand, and could be mutated without impairing the 3D structure of the protein. To validate the cavity in more detail, these six amino acids were mutated individually and the Syk mutants were subjected to the ADA test.
# • 1) Chemical products and antibodies. […] The binding of G4G11 with Syk was assessed by adding the 9E10 monoclonal antibody conjugated with HRP detecting the amino acid sequence EQKLISEEDLN of human c-myc protein located at the C-terminal end of the scFv fragment. To generate Syk mutants, targeted mutagenesis was used on GST:Syk 6-242 protein and the binding of G4G11 with the mutants was assessed in the presence of 5 μM of C-13. • 3) Cells, culture conditions and functional tests. […]
structure (smiles),measurement,value
"COC(=O)c1ccccc1-c1ccc(/C=C2/SC(=S)N(Cc3ccccc3)C2=O)o1 [Molecule C-13, methyl 2-{5-[(3-benzyl-4-oxo-2-thioxo-1,3-thiazolidin-5-ylidene)methyl]-2-furyl}benzoate]","effect of mutation of Arg 68, Glu 121 and Glu 155 of Syk on inhibition of G4G11 binding",cancelled the inhibition
